Experimental data from publication PMC5428663, “Identification of small molecule inhibitors of Interleukin-18” (Scientific Reports, 2017).

Assays:
[1] = target: T1, hIL-18:ectvIL-18BP complex (Homo sapiens, UniProt Q14116); assay: biochemical; type: binding, human; ectromelia virus; settings: for IC50: 5% DMSO, read-out: IC50, inhibition of hIL-18:ectvIL-18BP complex formation
T1 construct: Mature human IL-18 was cloned into a modified pET vector containing a C-terminal 6x His tag; 6x His (C); made in house; host or cells: E. coli BL21 gold (DE3) with biotin ligase for hIL-18; E. coli BL21 (DE3) Rosetta-Gami 2 for MBP-ectvIL-18BP
T1 sequence (Q14116 37-193): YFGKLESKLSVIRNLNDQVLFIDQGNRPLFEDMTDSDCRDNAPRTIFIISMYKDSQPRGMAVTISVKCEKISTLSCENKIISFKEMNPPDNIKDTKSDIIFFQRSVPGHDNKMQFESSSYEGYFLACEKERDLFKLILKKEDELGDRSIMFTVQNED

[2] = system: hIL-18 induced IFN-γ production in human KG-1 cells; assay: IFN-γ bioassay (hIL-18 induced IFN-γ production in KG-1 cells); type: cell-based; settings: for inhibition of hIL-18 activities (IFN-γ secretion): KG-1 cells, 1 uM inhibitor, increasing hIL-18 (Fig. 4)

Row | SMILES | Ki [1] [µM] | fold difference of calculated Ki (ELISA) vs predicted Autodock Ki [1] | IC50 [1] [µM] | inhibition of hIL-18 activities (IFN-γ secretion) [2] | EC50 ([2]; Homo sapiens, KG-1 cells 1 × 10^6 cells ml^−1, constant hIL-18, 24 hr, read-out: EC50, inhibition of hIL-18 induced IFN-γ production) [µM]
1 | O=C(Nc1cccc(-c2nc3ccccc3[nH]2)c1)c1ccc(C(=O)Nc2cccc(-c3nc4ccccc4[nH]3)c2)cc1 [NSC61610, 1-N,4-N-bis[3-(1H-benzimidazol-2-yl)phenyl]benzene-1,4-dicarboxamide] | 0.2 | approximately 2 fold | 6 | small inhibitory effect | –
2 | N#Cc1ccc(NC(=O)Nc2ccc(Oc3ccc(NC(=O)Nc4ccc(C#N)cc4)cc3)cc2)cc1 [NSC80734, 1-(4-cyanophenyl)-3-[4-[4-[(4-cyanophenyl)carbamoylamino]phenoxy]phenyl]urea] | 1.8 | approximately 4 fold | 52 | best inhibition | ~0.25
3 | CCOC(=O)c1ccc(Nc2sc(C(=O)c3cccc([N+](=O)[O-])c3)c(N)c2C#N)cc1 [NSC201631, ethyl 4-[[4-amino-3-cyano-5-(3-nitrobenzoyl)thiophen-2-yl]amino]benzoate] | 1.6 | approximately 2 fold | 44 | did not inhibit hIL-18 activities | –
